The target of the test is T1, thioredoxin reductase (TrxR) (Rattus norvegicus, UniProt O89049).
T1 construct: gene Txnrd1; commercially available rat liver TrxR
T1 sequence (O89049 1-499): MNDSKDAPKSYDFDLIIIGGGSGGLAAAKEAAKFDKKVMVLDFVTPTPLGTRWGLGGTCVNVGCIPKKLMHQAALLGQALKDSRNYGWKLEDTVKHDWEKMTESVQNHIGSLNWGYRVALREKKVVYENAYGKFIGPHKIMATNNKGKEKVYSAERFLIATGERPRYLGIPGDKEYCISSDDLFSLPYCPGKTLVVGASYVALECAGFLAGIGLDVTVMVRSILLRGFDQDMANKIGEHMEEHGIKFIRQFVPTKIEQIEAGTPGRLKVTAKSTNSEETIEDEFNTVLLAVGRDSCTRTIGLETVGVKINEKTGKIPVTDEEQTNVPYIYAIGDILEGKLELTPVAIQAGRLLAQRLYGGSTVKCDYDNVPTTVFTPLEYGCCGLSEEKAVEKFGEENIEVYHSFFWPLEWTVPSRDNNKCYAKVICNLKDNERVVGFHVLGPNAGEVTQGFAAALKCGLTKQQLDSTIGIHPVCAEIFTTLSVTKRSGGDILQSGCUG
The experiment in a line: DTNB reduction assay with NADPH and rat liver TrxR, […] min exposure, absorbance at […] nm. Type of test: biochemical.

Each structure is given as a SMILES string.

Compound `Cc1ccc(C(C)C)cc1.[Cl][Ru-]1[O]N2C=Cc3ccccc3C2=[S+]1` [1a, organoruthenium(II) chlorido complex 1a] registered an IC50 of 4.1 ± 0.16 µM.

For orientation: IC50 means the point on the concentration scale where inhibition reaches its midpoint. Higher therefore signals weaker potency in that assay.
